Measurements taken from ChEMBL document CHEMBL1201862, “PubChem BioAssay data set” (2004).
Activity calls are given as the source filed them.

Tests used:
Vero [1] = assay: cells; assay type: functional, cell-based; details: Chlorocebus sabaeus
Vero [2] = assay: cells; assay type: functional; details: Chlorocebus sabaeus
Troponin, cardiac muscle = Troponin, cardiac muscle (Homo sapiens, UniProt P19429+P45379+P63316); assay: Fluorescence-based biochemical high throughput dose response assay for activators of the calcium sensitivity of cardiac Regulated Thin Filaments (RTF). [Related pubchem assays (depositor defined):AID493008, AID493018, AID504382, AID504383]; assay type: protein-complex assay
[3] = viability of uninfected HEp-2 cells – cell-based, HTS, cytotoxicity control for RSV inhibitor project, dose response (AID 2410); assay type: functional; details: human respiratory syncytial virus
X-box-binding protein 1 = molecular target: T1, X-box-binding protein 1 (Homo sapiens, UniProt P17861); assay type: functional, Cricetulus griseus;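 further: confirmatory dose-response counter-screen serving a CHOP assay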
T1 sequence (P17861 whole entry): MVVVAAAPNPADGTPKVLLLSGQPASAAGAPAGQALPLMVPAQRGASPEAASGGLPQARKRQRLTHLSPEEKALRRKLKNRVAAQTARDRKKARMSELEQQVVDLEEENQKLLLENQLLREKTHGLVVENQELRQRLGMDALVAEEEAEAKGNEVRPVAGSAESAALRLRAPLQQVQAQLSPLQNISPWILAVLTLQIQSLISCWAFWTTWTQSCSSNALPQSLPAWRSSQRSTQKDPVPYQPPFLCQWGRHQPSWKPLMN

[4] = molecular target: DNA damage-inducible transcript 3 protein (Mus musculus, UniProt P35639); assay type: functional, Cricetulus griseus
[5] = molecular target: Dual specificity protein kinase CLK1 (Homo sapiens, UniProt P49759); assay: inhibition of human CLK1 activity – biochemical, cherry-picked samples, selectivity assay for Dyrk1A inhibitor project, dose response (AID 588811)
[6] = Trypanosoma cruzi growth suppression in host cells – NIH3T3 host cells, beta-gal luminescence, confirmation (AID 2044); assay type: functional, cell-based;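 further: intracellular parasites grown in NIH/3T3 mouse fibroblasts as host cells; luminescent beta-galactosidase reporter signal from transgenic T. cruzi replicating inside host cells; inhibitors lower the luminescence signal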
[7] = molecular target: Dual specificity tyrosine-phosphorylation-regulated kinase 1A (Rattus norvegicus, UniProt Q63470); assay type: biochemical, Homo sapiens
[8] = NIH3T3 cell viability loss – ATP luminescence, mouse fibroblasts, counter-screen, dose response (AID 2010); assay type: functional, cell-based;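 further: cells exposed to compound for about 90 hours before reading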
A-375 = assay: proliferation inhibition in MITF-low A375 cells – cell-based, cherry-pick samples, set 2, counter-screen for MITF modulator project, dose response (AID 540335); assay type: functional; details: Homo sapiens
[9] = molecular target: T2, Microphthalmia-associated transcription factor (Homo sapiens, UniProt O75030); assay: reducers of TRPM1 reporter luminescence, concentration series – cell-based, SK-MEL-5, cherry-picked, set 3, MITF inhibitor project, dose response (AID 493073); assay type: functional;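 further: SK-MEL-5 melanoma cells with luciferase driven by the MITF target TRPM1 promoter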
T2 sequence (O75030 whole entry): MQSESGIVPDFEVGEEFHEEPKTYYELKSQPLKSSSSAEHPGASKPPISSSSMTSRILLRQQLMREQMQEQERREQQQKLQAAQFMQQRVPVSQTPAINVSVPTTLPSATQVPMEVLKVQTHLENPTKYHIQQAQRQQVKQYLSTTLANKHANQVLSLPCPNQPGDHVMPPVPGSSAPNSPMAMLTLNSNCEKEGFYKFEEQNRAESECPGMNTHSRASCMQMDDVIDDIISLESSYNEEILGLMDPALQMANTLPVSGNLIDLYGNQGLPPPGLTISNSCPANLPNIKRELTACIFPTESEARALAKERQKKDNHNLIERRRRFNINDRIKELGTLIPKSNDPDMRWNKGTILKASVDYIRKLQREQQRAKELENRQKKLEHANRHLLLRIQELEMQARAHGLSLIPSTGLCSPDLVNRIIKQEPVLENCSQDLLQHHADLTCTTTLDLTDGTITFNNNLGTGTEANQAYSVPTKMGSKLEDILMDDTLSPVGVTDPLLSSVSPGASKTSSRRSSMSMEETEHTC

HEK293 = assay: cells; details: Homo sapiens;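 further: cells exposed to compound for 14 hours overnight before viability readout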
Tumor necrosis factor = Tumor necrosis factor (Homo sapiens, UniProt P01375); assay: analog potency on TNFa NF-kB signaling – cell-based, revised, SAR follow-up (AID 2337); assay type: functional
[10] = molecular target: Nucleotide-binding oligomerization domain-containing protein 2 (Homo sapiens, UniProt Q9HC29); assay: PubChem AID 2334; assay type: functional
[11] = molecular target: T3, Nucleotide-binding oligomerization domain-containing protein 1 (Homo sapiens, UniProt Q9Y239); assay: blockers of NOD1 pathway activity – revised, SAR follow-up (AID 2333); assay type: functional
T3 sequence (Q9Y239 whole entry): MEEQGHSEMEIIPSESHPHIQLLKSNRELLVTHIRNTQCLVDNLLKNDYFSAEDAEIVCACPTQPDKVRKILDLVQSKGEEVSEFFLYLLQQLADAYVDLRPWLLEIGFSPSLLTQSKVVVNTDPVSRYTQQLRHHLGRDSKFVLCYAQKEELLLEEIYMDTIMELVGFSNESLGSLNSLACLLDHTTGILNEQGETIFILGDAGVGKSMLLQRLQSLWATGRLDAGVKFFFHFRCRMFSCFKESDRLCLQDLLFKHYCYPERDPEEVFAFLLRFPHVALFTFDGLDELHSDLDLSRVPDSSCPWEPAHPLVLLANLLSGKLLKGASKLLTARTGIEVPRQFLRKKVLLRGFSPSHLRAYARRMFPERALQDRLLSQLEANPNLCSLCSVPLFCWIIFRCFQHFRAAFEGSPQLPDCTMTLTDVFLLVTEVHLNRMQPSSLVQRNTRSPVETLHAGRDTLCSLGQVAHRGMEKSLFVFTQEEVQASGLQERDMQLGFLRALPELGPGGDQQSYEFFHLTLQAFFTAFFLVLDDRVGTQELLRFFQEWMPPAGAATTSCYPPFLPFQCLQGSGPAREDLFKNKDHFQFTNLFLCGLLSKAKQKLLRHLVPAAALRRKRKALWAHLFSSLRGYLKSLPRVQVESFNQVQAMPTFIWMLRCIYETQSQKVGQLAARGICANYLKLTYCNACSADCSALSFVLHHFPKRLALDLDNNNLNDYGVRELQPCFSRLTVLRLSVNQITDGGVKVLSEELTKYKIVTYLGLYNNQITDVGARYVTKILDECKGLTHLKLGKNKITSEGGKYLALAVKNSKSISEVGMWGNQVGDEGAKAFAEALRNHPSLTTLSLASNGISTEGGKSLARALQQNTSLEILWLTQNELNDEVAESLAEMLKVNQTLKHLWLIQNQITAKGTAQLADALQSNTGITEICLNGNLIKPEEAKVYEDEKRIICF

[12] = molecular target: T4, Mannose-6-phosphate isomerase (Homo sapiens, UniProt P34949); assay: MPI inhibition at elevated mannose 6-phosphate – biochemical, fluorescence intensity, high mannose 6-phosphate, primary screen (AID 1220)
T4 sequence (P34949 whole entry): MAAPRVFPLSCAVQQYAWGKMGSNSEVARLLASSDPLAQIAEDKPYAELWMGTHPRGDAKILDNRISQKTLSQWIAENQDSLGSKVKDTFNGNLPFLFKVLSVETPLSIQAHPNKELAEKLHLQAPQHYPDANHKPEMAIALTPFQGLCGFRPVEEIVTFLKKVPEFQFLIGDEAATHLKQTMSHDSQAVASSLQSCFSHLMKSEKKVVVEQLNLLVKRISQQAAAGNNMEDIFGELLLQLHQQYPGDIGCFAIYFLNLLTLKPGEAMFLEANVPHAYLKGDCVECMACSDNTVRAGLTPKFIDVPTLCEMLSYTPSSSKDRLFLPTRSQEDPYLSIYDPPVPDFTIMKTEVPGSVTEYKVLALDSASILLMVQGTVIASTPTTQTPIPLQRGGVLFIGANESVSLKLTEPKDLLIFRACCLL

HeLa = assay: ATP-based viability loss in HeLa cells – cell-based, CellTiter-Glo luminescence, cherry-pick samples, cytotoxicity control for MITF activator project, dose response (AID 540259); assay type: functional; details: Homo sapiens
H4 = assay: Luminescence Cell-Based Dose Response HTS to Identify Activators of 5'UTR Stem-Loop Driven Prion Protein mRNA Translation in H4 Neuroglioblastoma Cells. [Related pubchem assays: 1829 (Project Summary), 1814 (Primary HTS)]; assay type: functional; details: Homo sapiens
[13] = Luminescence Cell-Based Dose Response HTS to Identify Activators of Luciferase Translation or Activity in H4 […] Cells. [Related pubchem assays: 1829 (Project Summary), 1814 (Primary HTS)]; assay type: functional
[14] = molecular target: T5, RNA-binding protein pos-1 (Caenorhabditis elegans, UniProt G5EF15); assay: disruptors of C. elegans POS-1 RNA interaction – biochemical, fluorescence polarization, dose response (AID 1964);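 further: purified POS-1 fused to maltose binding protein made in E. coli; potency of compounds blocking POS-1 binding to fluorescent RNA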
T5 sequence (G5EF15 whole entry): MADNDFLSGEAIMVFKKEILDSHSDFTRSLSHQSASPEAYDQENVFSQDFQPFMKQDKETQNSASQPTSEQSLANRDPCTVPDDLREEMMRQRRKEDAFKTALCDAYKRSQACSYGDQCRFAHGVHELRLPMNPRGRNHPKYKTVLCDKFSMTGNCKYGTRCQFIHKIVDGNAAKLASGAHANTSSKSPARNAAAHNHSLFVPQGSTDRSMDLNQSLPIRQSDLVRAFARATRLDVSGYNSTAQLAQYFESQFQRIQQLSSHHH

[15] = molecular target: T6, Zinc finger protein mex-5 (Caenorhabditis elegans, UniProt Q9XUB2); assay: potency of MEX-5 RNA-binding blockers – biochemical, C. elegans, fluorescence polarization, dose response (AID 1960)
T6 sequence (Q9XUB2 whole entry): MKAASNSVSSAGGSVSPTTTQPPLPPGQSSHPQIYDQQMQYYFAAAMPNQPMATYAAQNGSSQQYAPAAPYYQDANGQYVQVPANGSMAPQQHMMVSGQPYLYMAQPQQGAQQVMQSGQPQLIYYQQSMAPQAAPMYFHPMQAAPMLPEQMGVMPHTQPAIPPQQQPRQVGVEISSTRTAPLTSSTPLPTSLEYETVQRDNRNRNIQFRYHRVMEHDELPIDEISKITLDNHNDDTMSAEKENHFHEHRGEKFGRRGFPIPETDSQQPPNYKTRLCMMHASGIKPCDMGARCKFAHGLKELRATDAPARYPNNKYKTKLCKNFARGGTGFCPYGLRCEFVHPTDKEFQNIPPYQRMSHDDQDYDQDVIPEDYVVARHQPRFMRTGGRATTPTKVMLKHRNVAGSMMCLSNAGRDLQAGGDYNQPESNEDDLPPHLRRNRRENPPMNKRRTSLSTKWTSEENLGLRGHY

In the case of `CC(NC(=O)c1ccc([N+](=O)[O-])o1)C1CC2CCC1C2` (centres undefined), the IC50 (Vero [1]) is reported as > 25 µM (active) and the CC50 (Vero [2]) is reported as 19.9 µM (active).
In the case of `O=C(NCc1ccc(Cl)cc1)C1CCN(c2cnccn2)CC1`, the EC50 (Troponin, cardiac muscle) is reported as > 71.4 µM (inactive).
With `Cc1csc(NC(=O)Cc2coc3cc(C)c(C(C)C)cc23)n1` the IC50 (Vero [1]) was 9.7 µM (active), the CC50 (Vero [2]) was 23 µM (active) and the CC50 [3] was 6.08 µM (active).
With `Cc1n[nH]c(NC=C2C(=O)CC(c3ccco3)CC2=O)c1-c1ccc(Cl)cc1` (centres undefined) the “Absolute IC50 (XBP1)” value (X-box-binding protein 1) was 10 µM and the “Absolute IC50 (CHOP)” value [4] was 10 µM.
For `c1csc(CCNc2ncnc3ccc(-c4ccc5c(c4)OCO5)cc23)c1`, the AC50 [5] was < 0.00195 µM (active).
In the case of `c1cncc(CNc2ccnc(-c3ccc4[nH]ncc4c3)n2)c1`, the AC50 [5] is reported as 0.385 µM (active).
With `O=C(O)COc1ccc(/C=C/c2nc3ccc([N+](=O)[O-])cc3s2)cc1` the EC50 [6] was > 60 µM (not active), the AC50 [5] was 0.4 µM (active) and the AC50 [7] was 0.348 µM (active). The EC50 [8] was > 60 µM (not active).
With `CCOc1c(Br)cc(CNC2CCCCCCC2)cc1OC` the AC50 (A-375) was 21.9 µM (active) and the AC50 [9] was 20.5 µM (active).
For `O=C(NC1CCCc2c1cnn2-c1ccccc1F)c1ccnn1-c1ccccc1` (centres undefined), the IC50 (HEK293) was > 20 µM (inactive), the IC50 (Tumor necrosis factor) was > 20 µM (inactive) and the IC50 [10] was > 20 µM (inactive). The IC50 [11] was > 20 µM (inactive).
For `COc1ccc(NC(S)=Nc2cccc3cnccc23)cc1`, the AC50 [7] was 7.84 µM (active) and the IC50 [12] was > 50 µM (not active).
With `Cc1cc2c([nH]c3ccccc32)c2c1OC(C)(C)C=C2` [GRINIMIBINE] the AC50 (HeLa) was 41.3 µM (active), the “Absolute IC50 (XBP1)” value (X-box-binding protein 1) was 10 µM and the EC50 (H4) was 20.6 µM (active). For the same compound, the “Absolute IC50 (CHOP)” value [4] was 10 µM and the EC50 [13] was 27.7 µM (active).
In the case of `O=C(NC1CCCc2c1cnn2-c1ccccc1F)c1cc(-c2ccccc2)n[nH]1` (centres undefined), the IC50 (HEK293) is reported as > 20 µM (inactive), the IC50 (Tumor necrosis factor) is reported as 10.7 µM (active) and the IC50 [10] is reported as > 20 µM (inactive). For the same compound, the IC50 [11] was 16.9 µM (active).
With `CN(C)CCN(C)Cc1c2ccccc2c(CN(C)CCN(C)C)c2ccccc12` the EC50 [14] was 12.1 µM (active), the EC50 (Troponin, cardiac muscle) was 34.3 µM (inactive) and the EC50 [15] was 10.2 µM (active).
